Patent US7915297B2, “Isoxazole derivatives and use thereof” (SK Holdings Co., Ltd., priority 2005, dated 2011)

tested on: Wnt/β-catenin signaling (β-catenin activity) in HEK293 cell line; experiment: Cell-based Wnt agonist screening, TCF luciferase reporter, HEK293 (TCF-FL); set-up: species or system human; conditions: Homo sapiens, HEK293, 24 h, % of LiCl (20 mM), 24 h, Conc. 30 μM, read-out: Max. Activity (%)
Source text: (§1) In order to measure the in vitro activity of compounds of the present invention, two human cancer cell lines, HEK293 and SW480, which have intact Wnt signaling and show APC gene mutation in the Wnt signaling pathway, respectively, were used.
(§2) For evaluating the activity of wnt/β-catenin signaling in the cancer cell lines, gene as illustrated in FIG. 1 having β-catenin-binding sites of the Tcf/Lef transcriptional control protein (5 sites of TCF, 5X TCF) and having a fire fly luficerase as a marker protein ascertainable the activity of 5X TCF was introduced into the cells. Treatment with G418 led monoclones of the cell lines, in which the genes were permanently expressed, so as to construct a cell-based Wnt agonist screening system. […] For comparison with the activity of the isoxazole derivatives as Wnt agonists, lithium chloride (LiCl), acting as a positive control for the cell-based Wnt agonist screening system, was used to determine the expression level of the luciferase, and the results are shown in FIG. 3.
(§3) The cell lines, in which a cell-based Wnt agonist screening system was constructed, were cultured in RPMI 1640 media supplemented with penicillin-streptomycin (100 Units/mL) and heat-inactivated 5% fetal bovine serum under standard culture conditions (5% CO2, 37° C., 100% relative humidity). […] The suspension was diluted with the same medium to adjust the cell count to 8,000˜15,000 cells per well and was moved then in a 96-well microtiter plate. After being incubated for 24 hrs, the cells were treated with various concentrations of the isoxazole derivatives synthesized in Preparation Examples. Incubation for an additional 24 hours was followed by the quantitative analysis of luciferase activity using a Luciferase Assay kit (Promega, U.S.A.) according to the protocol described in the manual provided by the manufacturer. Data on the activities of the isoxazole derivatives thus synthesized are given in Tables 34 to 43, and are expressed as percentages relative to the activity of the positive control LiCl (20 mM), a well-known agonist of Wnt signaling.

| Structure (SMILES) | Emax at 30 µM |
| --- | --- |
| O=C(NCCc1ccccc1F)c1cc(-c2ccco2)on1 [Derivative (16), 5-furan-2-yl-isoxazole-3-carboxylic acid [2-(2-fluoro-phenyl)-ethyl]-amide] | < 20% |
| O=C(NCCc1cccnc1)c1cc(-c2ccco2)on1 [Derivative (11), 5-furan-2-yl-isoxazole-3-carboxylic acid (2-pyridin-3-yl-ethyl)-amide] | 61% |
| O=C(NCCCc1ccccc1)c1cc(-c2ccco2)on1 [Derivative (6), 5-furan-2-yl-isoxazole-3-carboxylic acid (3-phenyl-propyl)-amide] | < 20% |
| O=C(NCCc1ccc(O)cc1)c1cc(-c2ccco2)on1 [Derivative (22), 5-furan-2-yl-isoxazole-3-carboxylic acid [2-(4-hydroxy-phenyl)-ethyl]-amide] | < 20% |

same assay, conditions: Homo sapiens, HEK293, 24 h, % of LiCl (20 mM), 24 h, Conc. 60 μM, read-out: Max. Activity (%)

| Structure (SMILES) | Emax at 60 µM |
| --- | --- |
| O=C(NCCc1ccncc1)c1cc(-c2ccco2)on1 [Derivative (12), 5-furan-2-yl-isoxazole-3-carboxylic acid (2-pyridin-4-yl-ethyl)-amide] | 109% |

same assay, conditions: Homo sapiens, HEK293, 24 h, % of LiCl (20 mM), 24 h, Conc. 120 μM, read-out: Max. Activity (%)

| Structure (SMILES) | Emax at 120 µM |
| --- | --- |
| O=C(NCCc1ccccn1)c1cc(-c2ccco2)on1 [Derivative (10), 5-furan-2-yl-isoxazole-3-carboxylic acid (2-pyridin-2-yl-ethyl)-amide] | 32% |

tested on: Wnt/β-catenin signaling (β-catenin activity) in SW480 cell line; experiment: Cell-based Wnt agonist screening, TCF luciferase reporter, SW480 (TCF-FL); set-up: species or system human; conditions: Homo sapiens, % of LiCl (20 mM), 24 h, Con. 1 μM, read-out: Max. Activity (%)
Source text: as §1, §2, §3

| Structure (SMILES) | Emax at 1 µM |
| --- | --- |
| O=C(NCCn1nccn1)c1cc(-c2cccs2)on1 [Derivative (136), 5-thiophen-2-yl-isoxazole-3-carboxylic acid (2-[1,2,3]triazol-2-yl-ethyl)-amide] | 837% |
| O=C(NCCOc1ccccc1)c1cc(-c2ccco2)on1 [Derivative (214), 5-furan-2-yl-isoxazole-3-carboxylic acid (2-phenoxy-ethyl)-amide] | 161% |
| O=C(NCCNc1ccccc1)c1cc(-c2ccco2)on1 [Derivative (195), 5-furan-2-yl-isoxazole-3-carboxylic acid (2-phenylamino-ethyl)-amide] | 84% |

same assay, conditions: Homo sapiens, % of LiCl (20 mM), 24 h, Con. 10 μM, read-out: Max. Activity (%)

| Structure (SMILES) | Emax at 10 µM |
| --- | --- |
| O=C(NCCCn1cncn1)c1cc(-c2ccoc2)on1 [Derivative (153), 5-furan-3-yl-isoxazole-3-carboxylic acid (3-[1,2,4]-triazol-1-yl-propyl)-amide] | 304% |
| O=C(NCCn1cncn1)c1cc(-c2ccco2)on1 [Derivative (38), 5-furan-2-yl-isoxazole-3-carboxylic acid (2-[1,2,4]triazol-1-yl-ethyl)-amide] | 551% |
| CN1CCN(C(=O)OCc2cc(-c3ccco3)on2)CC1 [Derivative (253), 4-methyl-piperazine-1-carboxylic acid 5-furan-2-yl-isoxazol-3-ylmethyl ester] | 66% |

same assay, conditions: Homo sapiens, % of LiCl (20 mM), 24 h, Con. 30 μM, read-out: Max. Activity (%)

| Structure (SMILES) | Emax at 30 µM |
| --- | --- |
| CN1CCN(CCNC(=O)c2cc(-c3ccco3)on2)CC1 [Derivative (177), 5-furan-2-yl-isoxazole-3-carboxylic acid [2-(4-methyl-piperazin-1-yl)-ethyl]-amide] | 582% |
| O=C(NCCc1ccccc1F)c1cc(-c2ccco2)on1 [Derivative (16), 5-furan-2-yl-isoxazole-3-carboxylic acid [2-(2-fluoro-phenyl)-ethyl]-amide] | 327% |
| O=C(NCCn1nccn1)c1cc(-c2ccco2)on1 [Derivative (40), 5-furan-2-yl-isoxazole-3-carboxylic acid (2-[1,2,3]triazol-2-yl-ethyl)-amide] | 896% |
| O=C(NCCn1ccnn1)c1cc(-c2ccco2)on1 [Derivative (41), 5-furan-2-yl-isoxazole-3-carboxylic acid (2-[1,2,3]triazol-1-yl-ethyl)-amide] | 676% |
| O=C(NCCS(=O)(=O)c1ccccc1)c1cc(-c2cccs2)on1 [Derivative (219), 5-thiophen-2-yl-isoxazole-3-carboxylic acid (2-benzenesulfonyl-ethyl)-amide] | 113% |
| O=C(NCCc1cccnc1)c1cc(-c2cccs2)on1 [Derivative (139), 5-thiophen-2-yl-isoxazole-3-carboxylic acid (2-pyridin-3-yl-ethyl)-amide] | 922% |
| O=C(c1cc(-c2cccs2)on1)N1CCN(c2ccccn2)CC1 [Derivative (221), (4-pyridin-2-yl-piperazin-1-yl)-(5-thiophen-2-yl-isoxazol-3-yl)-methanone] | 51% |
| O=C(CCNC(=O)c1cc(-c2cccs2)on1)Nc1ccccc1 [Derivative (209), 5-thiophen-2-yl-isoxazole-3-carboxylic acid (2-phenylcarbamoyl-ethyl)-amide] | 246% |
| O=C(NCCc1cccnc1)c1cc(-c2ccccc2)on1 [Derivative (71), 5-phenyl-isoxazole-3-carboxylic acid (2-pyridin-3-yl-ethyl)-amide] | 919% |
| O=C(NCCc1ccc(O)cc1)c1cc(-c2ccccc2)on1 [Derivative (73), 5-phenyl-isoxazole-3-carboxylic acid [2-(4-hydroxy-phenyl)-ethyl]-amide] | 853% |
| O=C(c1cc(-c2cccs2)on1)N1CCC(N2CCCC2)CC1 [Derivative (223), (4-pyrrolidin-1-yl-piperidin-1-yl)-(5-thiophen-2-yl-isoxazol-3-yl)-methanone] | 50% |
| O=C(c1cc(-c2cccs2)on1)N1CCN(c2ncccn2)CC1 [Derivative (222), (4-pyrimidin-2-yl-piperazin-1-yl)-(5-thiophen-2-yl-isoxazol-3-yl)-methanone] | 57% |

same assay, conditions: Homo sapiens, % of LiCl (20 mM), 24 h, Con. 60 μM, read-out: Max. Activity (%)

| Structure (SMILES) | Emax at 60 µM |
| --- | --- |
| O=C(NCCc1cccnc1)c1cc(-c2ccco2)on1 [Derivative (11), 5-furan-2-yl-isoxazole-3-carboxylic acid (2-pyridin-3-yl-ethyl)-amide] | 625% |
| O=C(NCCCc1ccccc1)c1cc(-c2ccco2)on1 [Derivative (6), 5-furan-2-yl-isoxazole-3-carboxylic acid (3-phenyl-propyl)-amide] | 322% |

same assay, conditions: Homo sapiens, % of LiCl (20 mM), 24 h, Con. 120 μM, read-out: Max. Activity (%)

| Structure (SMILES) | Emax at 120 µM |
| --- | --- |
| O=C(OCc1cc(-c2ccco2)on1)n1ccnc1 [Derivative (251), imidazole-1-carboxylic acid 5-furan-2-yl-isoxazol-3-ylmethyl ester] | 35% |
| CC(=O)N1CCN(C(=O)OCc2cc(-c3ccco3)on2)CC1 [Derivative (252), 4-acetyl-piperazine-1-carboxylic acid 5-furan-2-yl-isoxazol-3-ylmethyl ester] | 49% |
| O=C(NCCCn1ccnc1)c1cc(-c2ccc(Br)s2)on1 [Derivative (143), 5-(5-bromo-thiophen-2-yl)-isoxazole-3-carboxylic acid (3-imidazol-1-yl-propyl)-amide] | 93% |
| O=C(NCCN1CCCCC1)c1cc(-c2ccco2)on1 [Derivative (174), 5-furan-2-yl-isoxazole-3-carboxylic acid (2-piperidin-1-yl-ethyl)-amide] | 79% |
| O=C(NCCn1cncn1)c1cc(-c2cccs2)on1 [Derivative (135), 5-thiophen-2-yl-isoxazole-3-carboxylic acid (2-[1,2,4]triazol-1-yl-ethyl)-amide] | 945% |
| O=C(NCCn1cncn1)c1cc(-c2ccsc2)on1 [Derivative (158), 5-thiophen-3-yl-isoxazole-3-carboxylic acid (2-[1,2,4]-triazol-1-yl-ethyl)-amide] | 414% |
| Nc1ccc(-c2cc(C(=O)NCCCn3ccnc3)no2)cc1 [Derivative (120), 5-(4-amino-phenyl)-isoxazole-3-carboxylic acid (3-imidazol-1-yl-propyl)-amide] | 246% |
| CN(CCc1ccccn1)C(=O)c1cc(-c2ccco2)on1 [Derivative (61), 5-furan-2-yl-isoxazole-3-carboxylic acid methyl-(2-pyridin-2-yl-ethyl)-amide] | 56% |
| O=C(NCc1ccncc1)OCc1cc(-c2ccco2)on1 [Derivative (254), pyridin-4-ylmethyl-carbamic acid 5-furan-2-yl-isoxazol-3-ylmethyl ester] | 37% |
| O=C(NCCCn1ccnc1)c1cc(-c2ccoc2)on1 [Derivative (152), 5-furan-3-yl-isoxazole-3-carboxylic acid (3-imidazol-1-yl-propyl)-amide] | 374% |
